Where a SMILES comes first, the peptide text is derived from it. [ ]: non-standard residue; d: D form.

This is an account of results in US20090142364A1, “Method for finding novel peptide immunostimulatory adjuvants, compositions and methods of use” (priority 2007, published 2009).

The subject of series [1] is antibody response to ovalbumin. Description: Adjuvant activity: antibody response to ovalbumin in mice, titer by solid-phase ELISA. The format is in vivo, Balb/c mice. The following applies: for Adjuvant index / Anti-ovalbumin antibody titer: i.p. Here is the method:
To study the adjuvant activity of RN-peptide, Balb/c mice were immunized with ovalbumin in saline in the presence of the RN-peptide, its analogs or GMDP, or without any adjuvant (control). The adjuvant was introduced on first immunization, whereas second immunization was carried out with half dose of OVA without adjuvant.
Adjuvant activity. Groups of 5 Balb/c mice were administered i.p. with 2.5-10 μg ovalbumin (Sigma, USA) per mouse in 200 μl PBS. RN-peptide (0.1-100 μg) or GMDP (1-100 μg) was introduced simultaneously with ovalbumin on first immunization. The second immunization was carried out 28 days later with half dose of ovalbumin (1.25-5.0 μg/200 μl) without adjuvant. Control mice received ovalbumin twice without adjuvant. Three days after the second immunization mice were bled from the tail vein. […] Control mice received polysaccharide without any adjuvant. Five and ten days after immunization mice were bled.
The antibody titer was evaluated by solid-phase ELISA as described by Douillard and Hoffman (1983) Enzyme-linked immunosorbent assay for screening monoclonal antibody production using enzyme-labeled second antibody. The antigen (ovalbumin or polysaccharide), 5 μg/ml in bicarbonate buffer, pH 8.6 (100 μl), was introduced into wells of 96-well microtiter plate. Incubation was carried out overnight at 4° C. The plate was washed 5 times with PBS and 5 times with PBS/0.1% Tween-20 (PBS-T). Remaining binding sites were blocked with 1% gelatin in PBS (2 h, room temperature). After washing 100 μl of mouse serum (1:100 dilution) was added, and serial three-fold dilutions were made. Bound antibodies were visualized by incubation with Horse-Radish-Peroxidase (HRP)-conjugated rabbit anti-mouse antibodies and OPD as the chromogenic substrate.
In general terms: An ELISA detects its analyte on a solid surface through an enzyme-linked reagent.

For series [2], the system named is E. coli strain TG-1. Briefly: Survival of Balb/c mice infected with E. coli strain TG-1. The following applies: 2 ng i.p., 6 mice at 0 h. The format is in vivo, mouse. Here is the method:
Groups of Balb/c mice (20-22 g) were administered i.p. with RN-peptide, or GMDP, or saline (control), and then infected i.p. with E. coli strain TG-1 cells. Two doses of E. coli cells were used—1×10^8 (LD50) and 2×10^8 (LD100). Mice were infected one day (experiment A) or seven days (experiment B) after injection of the immunomodulator. Survival of mice was assessed during three days. Results showing that RN-peptide protects mice from lethal doses of E. coli infections (Table 4).

The conditions of series [3]: rat, in vivo, ip. Here is the method: (§1) We studied the Ia-antigen-inducing activity of RN-peptide by stimulation in vitro of murine peritoneal macrophages. Flow cytometry was used to assess Ia-antigen expression. […] The pyrogenicity of the peptide was studied in Wistar rats. […] The dynamics of alteration of rectal temperature were monitored during 2.5 h.
The pyrogenic effect SPF female Wistar rats were injected i.p. with a peptide (1.01 mg/kg; 5.74×10^−7 mole/kg) in PBS or with equal dose of GMDP (0.4 mg/kg; 5.74×10^−7 mole/kg). Rectal temperature was recorded every 5 minutes for 160 minutes using PowerLabe/4sp system with an electronic thermometer (MLT1403 Rectal Probe for Rats, AD Instruments USA). All data were quantified (mean±SEM) and compared by the variance analysis.

For series [4], the system named is Balb/c mice peritoneal mononuclear cells (PMC). Description: Ia-antigen-inducing effect, flow cytometry, peritoneal mononuclear cells. The format is cell-based, mouse. The protocol: as §1
Balb/c mice peritoneal mononuclear cells (PMC) were isolated by Histopaque density gradient centrifugation. PMC or WEHI-3 cells were incubated with RN-peptide (0.1-10 μg/ml) or GMDP (positive control) or saline (negative control) in RPMI 1640 medium, supplemented with 5% fetal calf serum upon rotary mixing for 18 h at 37° C. Cells were stained on ice bath with MKD6 anti-Ia^d mAb (supernatant from the in vitro culture, 1:10 dilution) and FITC-labeled anti-mouse immunoglobulin (Sigma, USA, 1:300 dilution), and then with phycoerythrin-labeled F4/80 mAb (Caltag, USA, 0.2 μg/100 μl). Ia antigen expression was assessed by flow cytometry using EPICS “Elite” (Coulter, USA).

The test system of series [5] is mAb E6/1.2. The following applies: cited from earlier work.
[6] abbreviates: adjuvant 1 μg, ovalbumin 10 μg then 5 μg.
Setting [7] is: adjuvant 10 μg, ovalbumin 10 μg then 5 μg.
[8] abbreviates: adjuvant 100 μg, ovalbumin 10 μg then 5 μg.
Where [9] appears, read: Experiment A (infected one day after injection), 1 × 10^8 E. coli cells (LD50).
[10] abbreviates: Experiment A (infected one day after injection), 2 × 10^8 E. coli cells (LD100).
Where [11] appears, read: Experiment B (infected seven days after injection), 1 × 10^8 E. coli cells (LD50).
The mark [12] stands for this setting: Experiment B (infected seven days after injection), 2 × 10^8 E. coli cells (LD100).
Setting [13] is: adjuvant 10 μg, ovalbumin 2.5 μg then 1.25 μg.

“VN-peptide: 14-mer, RN-peptide truncated from N-terminus (SEQ ID NO: 11) (VPPRYHAKISPMVN)”: the figures for the Adjuvant index in series [1] (setting [6]), in series [1] (setting [7]) and in series [1] (setting [8]) were 0.9 ± 0.03, 1.4 ± 0.04 and 0.7 ± 0.03, respectively. Moreover, the Anti-ovalbumin antibody titer in series [1] (setting [6]) turned out to be 5400 ± 200; in series [1] (setting [7]), 8400 ± 230; in series [1] (setting [8]), 4200 ± 150.
On to `CC(=O)N[C@H]1[C@H](O[C@H]2[C@H](O[C@H](C)C(=O)N[C@@H](C)C(=O)N[C@H](CCC(=O)O)C(N)=O)[C@@H](NC(C)=O)C(O)O[C@@H]2CO)O[C@H](CO)[C@@H](O)[C@@H]1O` (stereo partly drawn) [GMDP, N-acetylglucosaminyl-β1-4-N-acetylmuramyl-alanyl-D-isoglutamine, reference compound], for which the Number of survivors came out at 2 in series [2] (setting [9]), 1 in series [2] (setting [10]), 2 in series [2] (setting [11]) and 0 in series [2] (setting [12]). Also, the “surviving mice, 24 hours after infection” value in series [2] (setting [9]) worked out at 2; in series [2] (setting [10]), 2; in series [2] (setting [11]) it was 5; in series [2] (setting [12]), 3. Also, the “surviving mice, 28 hours after infection” value in series [2] (setting [9]), in series [2] (setting [10]), in series [2] (setting [11]) and in series [2] (setting [12]) was 2 each time. For the same compound, the “surviving mice, 72 hours after infection” value in series [2] (setting [9]) stood at 2; in series [2] (setting [10]), 1; in series [2] (setting [11]) it was 2; in series [2] (setting [12]), 0. Moreover, the Adjuvant index in series [1] (setting [6]) stood at 0.7 ± 0.03; in series [1] (setting [13]), 2.37 ± 0.06; in series [1] (setting [7]), 1.3 ± 0.03; in series [1] (setting [8]), 10.8 ± 0.08. The Anti-ovalbumin antibody titer in series [1] (setting [6]) came to 4000 ± 150; in series [1] (setting [13]), 5800 ± 150; in series [1] (setting [7]), 7900 ± 200; in series [1] (setting [8]), 64800 ± 500. Further, in series [3], the “increase in body temperature” value is given as 2.0-4.0%. Also, in series [4] (18 h incubation), the “concentration of peak (optimal) Ia-antigen response” value amounted to 10 µg/mL. The “increase in Ia-positive cell number” value in series [4] (at optimal dose, overnight treatment) was found to be 10%. For the same compound, the “optimal dose for Ia-positive cell increase” value in series [4] (overnight treatment) turned out to be 10 µg.
With `CC(=O)NC1C(OC2C(CO)OC(O)C(NC(C)=O)C2OC(C)C(=O)NC(C)C(=O)NC(CCC(=O)O)C(N)=O)OC(CO)C(O)C1O` (stereo not drawn) [LL-GMDP], the “binding of mAb E6/1.2” value in series [5] (compared with GMDP) was “bind equally well”.
Turning to `C[C@H](N)C(=O)N[C@H](CCC(=O)O)C(N)=O` [Ala-D-iGln] (H-Ala-[dE]-NH2), in series [5], the “inhibition of binding of GMDP to E6/1.2 mAb” value was “not”.
With “R-I-peptide: 10-mer, RN-peptide truncated from C-terminus (SEQ ID NO: 9) (RVPPRYHAKI)”, the figures for the Adjuvant index in series [1] (setting [6]), in series [1] (setting [7]) and in series [1] (setting [8]) were 6.3 ± 0.06, 3.2 ± 0.09 and 4.2 ± 0.05, respectively. The results for the Anti-ovalbumin antibody titer in series [1] (setting [6]), in series [1] (setting [7]) and in series [1] (setting [8]) were 24000, 19200 and 25200, respectively. For the same compound, the “adjuvant activity (in words)” value in series [1] (ovalbumin in mice) is listed as “adjuvant active”.
As for “R-H-peptide: 7-mer, RN-peptide truncated from C-terminus (SEQ ID NO: 10); truncated heptapeptide (RVPPRYH)”, the Adjuvant index is 0.7 ± 0.03 in series [1] (setting [6]), 2.3 ± 0.05 in series [1] (setting [7]) and 8.6 ± 0.09 in series [1] (setting [8]). The Anti-ovalbumin antibody titer worked out at 4000 in series [1] (setting [6]), 13900 in series [1] (setting [7]) and 51900 in series [1] (setting [8]). In addition, the “dose required for maximal effect relative to RN-peptide” value in series [1] (mouse, in vivo) is recorded as 100 times.
As for “RV-peptide: 14-mer, RN-peptide truncated from C-terminus (SEQ ID NO: 8) (RVPPRYHAKISPMV)”, the Adjuvant index worked out at 6.3 ± 0.06 in series [1] (setting [6]), 1.4 ± 0.04 in series [1] (setting [7]) and 0.8 ± 0.03 in series [1] (setting [8]). Further, the Anti-ovalbumin antibody titer in series [1] (setting [6]) was 37800 ± 350; in series [1] (setting [7]) it was 8400 ± 240; in series [1] (setting [8]), 4800 ± 180.
In the case of `CC(=O)N[C@H]1[C@H](O[C@H]2[C@H](O[C@H](C)C(=O)O)[C@@H](NC(C)=O)C(O)O[C@@H]2CO)O[C@H](CO)[C@@H](O)[C@@H]1O` (stereo partly drawn) [GlcNAc-β(1-4)-MurNAc], the “inhibition of binding of GMDP to E6/1.2 mAb” value in series [5] is “could be inhibited by high concentration”.
